Test results published in ChEMBL document CHEMBL4354856, “Discovery of 4,6-O-Thenylidene-β-d-glucopyranoside-(2″-acetamido, 3″-acetyl-di-S-5-fluorobenzothizole/5-fluorobenzoxazole)-4'-demethylepipodophyllotoxin as Potential Less Toxic Antitumor Candidate Drugs by Reducing DNA Damage and Less Inhibition of PI3K” (J Med Chem, 2020).
The source made the active and inactive calls. The rule behind the calls is not given here.

Tests used:
HMEC [1] = test: Cytotoxicity against human HMEC cells assessed as inhibition of cell proliferation measured after 48 hrs by MTT assay; format: cell-based
MCF7 = test: Anticancer activity against human MCF7 cells assessed as inhibition of cell proliferation measured after 48 hrs by MTT assay; format: functional, cell-based; details: MCF7, 48 h
MRC5 [2] = test: Cytotoxicity against human MRC5 cells assessed as inhibition of cell proliferation measured after 48 hrs by MTT assay; format: cell-based; details: MRC5, 48 h
L02 [3] = test: Cytotoxicity against human HL7702 cells assessed as inhibition of cell proliferation measured after 48 hrs by MTT assay; format: cell-based; details: L02, 48 h
HepG2 [4] = test: Anticancer activity against human HepG2 cells assessed as inhibition of cell proliferation measured after 48 hrs by MTT assay; format: functional, cell-based; details: HepG2, 48 h
A549 = test: Anticancer activity against human A549 cells assessed as inhibition of cell proliferation measured after 48 hrs by MTT assay; format: functional, cell-based; details: A549, 48 h
HeLa = test: Anticancer activity against human HeLa cells assessed as inhibition of cell proliferation measured after 48 hrs by MTT assay; format: functional, cell-based
[5] = Cytotoxicity against human H8 cells assessed as inhibition of cell proliferation measured after 48 hrs by MTT assay; format: cell-based
[6] = biological target: DNA topoisomerase 2-alpha (Homo sapiens) (UniProt P11388); test: Inhibition of human topoisomerase-2alpha mediated decatenation using kinetoplast DNA as substrate after 30 mins in presence of ATP by ethidium bromide staining-based UV imaging analysis
[7] = biological target: DNA topoisomerase 2-alpha (Homo sapiens) (UniProt P11388); test: Inhibition of human topoisomerase-2alpha mediated decatenation at 50 uM using kinetoplast DNA as substrate after 30 mins in presence of ATP by ethidium bromide staining-based UV imaging analysis relative to control
HepG2 [8] = test: Cell cycle arrest in human HepG2 cells assessed as accumulation at G2/M phase at 5 uM after 24 hrs by propidium staining based flow cytometry analysis; format: functional
HepG2 [9] = test: Cell cycle arrest in human HepG2 cells assessed as accumulation at G2/M phase at 15 uM after 36 hrs by propidium staining based flow cytometry analysis relative to control; format: functional
L02 [10] = test: Cell cycle arrest in human HL7702 cells assessed as accumulation at G2/M phase at 5 uM after 30 hrs by propidium staining based flow cytometry analysis relative to control; details: l02, 30 h
HepG2 [11] = test: Induction of apoptosis in human HepG2 cells assessed as apoptotic cells at 5 to 15 uM measured after 36 hrs by Annexin-V/propidium iodide staining based flow cytometry analysis relative to control; format: functional
HepG2 [12] = test: Induction of apoptosis in human HepG2 cells assessed as apoptotic cells at 10 uM measured after 42 hrs by Annexin-V/propidium iodide staining based flow cytometry analysis relative to control; format: functional
L02 [13] = test: Induction of apoptosis in human HL7702 cells assessed as apoptotic cells at 50 uM measured after 42 hrs by Annexin-V/propidium iodide staining based flow cytometry analysis relative to control; format: cell-based; details: l02, 42 h
[14] = Acute toxicity in C57BL6 mouse assessed as effect on body weight at 100 mg/kg, ip administered for 20 days; format: organism-based; details: in vivo, 480 h
[15] = Acute toxicity in ip dosed C57BL6 mouse assessed as mouse survival administered as single dose for 3 days and monitored for 20 days by Bliss method; format: organism-based; details: in vivo
HepG2 [16] = test: Antitumor activity against human HepG2 xenografted in ip dosed BALB/c nude mouse administered for 20 days and measured after 20 days by electronic caliper method; format: functional; details: 480 h
HepG2 [17] = test: Antitumor activity against human HepG2 xenografted in BALB/c nude mouse assessed as tumor volume at 30 mg/kg, ip administered for 20 days and measured after 20 days by electronic caliper method (reference value: 960.20 +/- 32.10 mm3); format: functional
HepG2 [18] = test: Antitumor activity against human HepG2 xenografted in BALB/c nude mouse assessed as tumor growth inhibition at 30 mg/kg, ip administered for 20 days and measured after 20 days by electronic caliper method relative to control; format: functional; details: 480 h, read-out: TGI
[19] = Therapeutic index, ratio of LD50 for acute toxicity in ip dosed C57BL6 mouse assessed as mouse survival administered as single dose for 3 days and monitored for 20 days by Bliss method to ED50 for antitumor activity against human HepG2 xenografted in ip dosed BALB/c nude mouse administered for 20 days and measured after 20 days by electronic caliper method; format: organism-based; details: in vivo, read-out: TI
[20] = biological target: DNA topoisomerase 2-alpha (Homo sapiens) (UniProt P11388); test: Inhibition of human topoisomerase-2alpha mediated decatenation at 25 uM using kinetoplast DNA as substrate after 30 mins in presence of ATP by ethidium bromide staining-based UV imaging analysis
DNA topoisomerase II [21] = biological target: T1, DNA topoisomerase II (Homo sapiens, UniProt P11388+Q02880); test: Poison activity at topoisomerase-2 in human HepG2 cell lysate assessed as topoisomerase-2 band depletion after 3 hrs by Western blot analysis; format: subcellular
DNA topoisomerase II [22] = biological target: T1, DNA topoisomerase II; test: Poison activity at topoisomerase-2 in human HL7702 cell lysate assessed as reduction in topoisomerase-2 band depletion at 50 uM after 3 hrs by Western blot analysis; format: ADME, subcellular
HepG2 [23] = test: Induction of DNA damage in human HepG2 cells assessed as increase in H2AX phosphorylation at 20 uM after 24 hrs by Alexa Fluor 488 staining based fluorescence assay; format: functional, cell-based
L02 [24] = test: Genotoxicity in human HL7702 cells assessed as induction of DNA damage by measuring tail DNA at 50 uM after 24 hrs by alkaline comet assay (reference value: 3 +/- 1.1 %); format: toxicity, cell-based; details: l02, 24 h
L02 [25] = test: Induction of DNA damage in human HL7702 cells assessed as effect on gamma-H2AX phosphorylation at 20 uM after 24 hrs by Alexa Fluor 488 staining based fluorescence assay; format: cell-based; details: l02, 24 h
L02 [26] = test: Genotoxicity in human HL7702 cells assessed as induction of DNA damage at 50 uM after 24 hrs in combination of teniposide by alkaline comet assay; format: toxicity, cell-based; details: l02, 24 h
L02 [27] = test: Cytotoxicity against human HL7702 cells assessed as inhibition of cell proliferation measured after 48 hrs by MTT assay relative to teniposide; format: cell-based; details: l02, 48 h
MRC5 [28] = test: Cytotoxicity against human MRC5 cells assessed as inhibition of cell proliferation measured after 48 hrs by MTT assay relative to teniposide; format: cell-based; details: mrc5, 48 h
HMEC [29] = test: Cytotoxicity against human HMEC cells assessed as inhibition of cell proliferation measured after 48 hrs by MTT assay relative to teniposide; format: cell-based
Homo sapiens = organism: Homo sapiens; test: Induction of PI3K/AKT phosphorylation in human HL7702 cells at 25 uM after 30 hrs by Western blot analysis; format: cell-based
L02 [30] = test: Induction of apoptosis in human HL7702 cells assessed as increase in BAX level at 25 uM after 30 hrs by Western blot analysis; format: cell-based; details: l02, 30 h
L02 [31] = test: Induction of apoptosis in human HL7702 cells assessed as increase in PARP cleavage at 25 uM after 30 hrs by Western blot analysis; format: cell-based; details: l02, 30 h

Chain of DNA topoisomerase 2-alpha (Homo sapiens) (P11388 whole entry): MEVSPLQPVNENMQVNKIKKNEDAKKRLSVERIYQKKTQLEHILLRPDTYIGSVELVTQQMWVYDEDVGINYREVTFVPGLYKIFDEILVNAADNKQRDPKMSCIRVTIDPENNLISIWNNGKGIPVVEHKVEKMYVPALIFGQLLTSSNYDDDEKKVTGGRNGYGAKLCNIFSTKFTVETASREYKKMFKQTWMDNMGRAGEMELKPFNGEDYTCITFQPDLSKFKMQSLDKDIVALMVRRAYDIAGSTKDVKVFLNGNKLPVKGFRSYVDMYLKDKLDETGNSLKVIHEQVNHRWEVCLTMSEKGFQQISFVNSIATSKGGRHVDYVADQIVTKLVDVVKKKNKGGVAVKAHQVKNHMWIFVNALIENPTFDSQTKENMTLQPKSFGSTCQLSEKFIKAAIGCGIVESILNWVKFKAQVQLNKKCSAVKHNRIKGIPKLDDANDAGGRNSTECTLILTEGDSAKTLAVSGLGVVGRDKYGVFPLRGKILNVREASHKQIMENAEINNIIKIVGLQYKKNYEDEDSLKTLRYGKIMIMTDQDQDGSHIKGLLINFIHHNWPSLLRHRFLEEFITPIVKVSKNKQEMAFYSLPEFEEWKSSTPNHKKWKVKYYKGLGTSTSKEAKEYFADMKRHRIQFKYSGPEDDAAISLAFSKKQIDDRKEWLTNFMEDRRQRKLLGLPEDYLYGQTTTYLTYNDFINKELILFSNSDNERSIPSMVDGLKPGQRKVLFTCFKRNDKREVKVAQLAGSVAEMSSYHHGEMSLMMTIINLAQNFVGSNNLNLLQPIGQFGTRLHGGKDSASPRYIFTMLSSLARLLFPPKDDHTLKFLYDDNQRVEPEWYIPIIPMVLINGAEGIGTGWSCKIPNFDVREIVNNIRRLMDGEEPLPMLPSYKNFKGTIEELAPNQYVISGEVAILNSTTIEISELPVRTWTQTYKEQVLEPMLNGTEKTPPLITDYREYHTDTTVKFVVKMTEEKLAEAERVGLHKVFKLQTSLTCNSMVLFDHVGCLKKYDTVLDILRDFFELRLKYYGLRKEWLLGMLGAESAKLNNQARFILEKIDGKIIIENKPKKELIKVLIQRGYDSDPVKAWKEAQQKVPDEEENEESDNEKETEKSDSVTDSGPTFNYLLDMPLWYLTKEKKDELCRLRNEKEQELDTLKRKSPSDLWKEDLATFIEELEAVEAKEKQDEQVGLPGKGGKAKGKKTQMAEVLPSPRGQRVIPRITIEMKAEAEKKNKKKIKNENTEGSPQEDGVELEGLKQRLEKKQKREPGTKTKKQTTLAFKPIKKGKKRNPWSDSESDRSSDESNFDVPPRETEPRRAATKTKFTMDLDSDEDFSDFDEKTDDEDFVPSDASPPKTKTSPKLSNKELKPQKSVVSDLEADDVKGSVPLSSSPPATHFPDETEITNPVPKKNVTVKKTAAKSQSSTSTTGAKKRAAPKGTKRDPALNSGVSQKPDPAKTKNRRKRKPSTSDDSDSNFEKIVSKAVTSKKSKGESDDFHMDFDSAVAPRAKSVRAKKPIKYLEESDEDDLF

COc1cc([C@@H]2c3cc4c(cc3[C@@H](O[C@@H]3O[C@@H]5CO[C@@H](c6cccs6)O[C@H]5[C@H](OC(=O)CSc5nc6cc(F)ccc6o5)[C@H]3OC(=O)CSc3nc5cc(F)ccc5o3)[C@H]3COC(=O)[C@H]23)OCO4)cc(OC)c1O
IC50 (HMEC [1]): 23.4 µM | IC50 (MCF7): 30.5 µM | IC50 (MRC5 [2]): 25.4 µM | IC50 (L02 [3]): 20.4 µM | IC50 (HepG2 [4]): 15.6 µM | IC50 (A549): 11.5 µM | IC50 (HeLa): 50.3 µM | IC50 [5]: 20.4 µM

COc1cc([C@@H]2c3cc4c(cc3[C@@H](O[C@@H]3O[C@@H]5CO[C@@H](c6cccs6)O[C@H]5[C@H](O)[C@H]3NC(=O)CSc3nc5cc(F)ccc5s3)[C@H]3COC(=O)[C@H]23)OCO4)cc(OC)c1O
IC50 (HMEC [1]): 160 µM | IC50 (MCF7): 142 µM | IC50 (MRC5 [2]): 123 µM | IC50 (L02 [3]): 156 µM | IC50 (HepG2 [4]): 120 µM | IC50 (A549): 122 µM | IC50 (HeLa): 134 µM | IC50 [5]: 140 µM

COc1cc([C@@H]2c3cc4c(cc3[C@@H](O[C@@H]3O[C@@H]5CO[C@@H](c6cccs6)O[C@H]5[C@H](OC(=O)CSc5nc6cc(F)ccc6o5)[C@H]3O)[C@H]3COC(=O)[C@H]23)OCO4)cc(OC)c1O
IC50 (HMEC [1]): 14.2 µM | IC50 (MCF7): 4.6 µM | IC50 (MRC5 [2]): 14.9 µM | IC50 (L02 [3]): 16.1 µM | IC50 (HepG2 [4]): 2.1 µM | IC50 (A549): 4.8 µM | IC50 (HeLa): 2 µM | IC50 [5]: 15.9 µM

COc1cc([C@@H]2c3cc4c(cc3[C@@H](O[C@@H]3O[C@@H]5CO[C@@H](c6cccs6)O[C@H]5[C@H](O)[C@H]3NC(=O)CSc3nc5cc(F)ccc5o3)[C@H]3COC(=O)[C@H]23)OCO4)cc(OC)c1O
IC50 (HMEC [1]): 156 µM | IC50 (MCF7): 157 µM | IC50 (MRC5 [2]): 133 µM | IC50 (L02 [3]): 144 µM | IC50 (HepG2 [4]): 121 µM | IC50 (A549): 122 µM | IC50 (HeLa): 158 µM | IC50 [5]: 147 µM

COc1cc([C@@H]2c3cc4c(cc3[C@@H](O[C@@H]3O[C@@H]5CO[C@@H](c6cccs6)O[C@H]5[C@H](OC(=O)CSc5nc6cc(F)ccc6o5)[C@H]3NC(=O)CSc3nc5cc(F)ccc5o3)[C@H]3COC(=O)[C@H]23)OCO4)cc(OC)c1O
IC50 (HMEC [1]): 125 µM | IC50 (MCF7): 12.3 µM | IC50 (MRC5 [2]): 124 µM | IC50 (L02 [3]): 123 µM | inhibition [6]: Dose-dependent effect | inhibition [7]: 100% | IC50 (HepG2 [4]): 11.1 µM | IC50 (A549): 14.9 µM | IC50 (HeLa): 155 µM | IC50 [5]: 123 µM | Activity (HepG2 [8]): inactive | Activity (HepG2 [9]): 76% | Activity (L02 [10]): 40% | Activity (HepG2 [11]): 30 - 55% | Activity (HepG2 [12]): 55% | Activity (L02 [13]): 30% | Activity [14]: Non-Toxic | LD50 at 480 h [15]: 168 mg/kg | ED50 (HepG2 [16]): 34.7 mg/kg | Activity (HepG2 [17]): 163.25 mm3 | inhibition in vivo at 30 mg/kg (HepG2 [18]): 62% | selectivity ratio at 20 days [19]: 4.82 | inhibition [20]: Active | IC50 (DNA topoisomerase II [21]): 124.2 µM | Activity (DNA topoisomerase II [22]): Not Active | Activity (HepG2 [23]): Active | Activity (L02 [24]): 8.4% | Activity (L02 [25]): Toxic | Activity (L02 [26]): Toxic | fold change (FC) (L02 [27]): 10 | fold change (FC) (MRC5 [28]): 10 | fold change (FC) (HMEC [29]): 10 | Activity (Homo sapiens): Active | Activity (L02 [30]): Non-Toxic | Activity (L02 [31]): Non-Toxic
